US6737383B1, “Herbicidal oxadiazolidines” (priority 1999, dated 2004)

Columns and labels:
surinam grass = assay: Test B pre/postemergence surinam grass; type: in vivo, Brachiaria decumbens
Outline: (§1)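 Response is a visual 0-to-10 score relative to untreated plants, where 0 means no effect and 10 means complete control, taken twelve to sixteen days after application. Treatments went onto soil at planting and onto foliage of 1- to 4-leaf plants, using a surfactant-containing non-phytotoxic solvent.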

blackgrass = assay: Test B pre/postemergence blackgrass; type: in vivo, Alopecurus myosuroides
Outline: as §1

corn = assay: Test B pre/postemergence corn; type: in vivo, Zea mays
Outline: as §1

purple nutsedge = assay: Test B pre/postemergence purple nutsedge; type: in vivo, Cyperus rotundus
Outline: as §1

giant foxtail = assay: Test B pre/postemergence giant foxtail; type: in vivo, Setaria faberii
Outline: as §1

morningglory = assay: Test B pre/postemergence morningglory; type: in vivo, Ipomoea hederacea
Outline: as §1

sugar beet = assay: Test B pre/postemergence sugar beet; type: in vivo, Beta vulgaris
Outline: as §1

rape = assay: Test B pre/postemergence rape; type: in vivo, Brassica napus
Outline: as §1

rice = assay: Test B flood test rice; type: in vivo, Oryza sativa
Outline: (§2)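 Flood test on plants grown to the 2-leaf stage; treated plants kept in greenhouse twelve to sixteen days, then visually rated against controls on a 0 (no effect) to 10 (complete control) scale.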

crabgrass = assay: Test B pre/postemergence crabgrass; type: in vivo, Digitaria sanguinalis
Outline: as §1

bamyardgrass = assay: Test B flood test barnyardgrass; type: in vivo, Echinochloa crus-galli
Outline: as §2

wild oat = assay: Test B pre/postemergence wild oat; type: in vivo, Avena fatua
Outline: as §1

smallflower flatsedge = assay: Test B flood test smallflower flatsedge; type: in vivo, Cyperus difformis
Outline: as §2

duck salad = assay: Test B flood test duck salad; type: in vivo, Heteranthera limosa
Outline: as §2

soybean = assay: Test B pre/postemergence soybean; type: in vivo, Glycine max
Outline: as §1

cocklebur = assay: Test B pre/postemergence cocklebur; type: in vivo, Xanthium strumarium
Outline: as §1

pigweed = assay: Test B pre/postemergence pigweed; type: in vivo, Amaranthus retroflexus
Outline: as §1

wheat = assay: Test B pre/postemergence wheat; type: in vivo, Triticum aestivum
Outline: as §1

velvetleaf = assay: Test B pre/postemergence velvetleaf; type: in vivo, Abutilon theophrasti
Outline: as §1

[1] = Postemergence, Rate 62 g/ha, scale of 0 to 10, 0 is no effect, 10 is complete control
[2] = Postemergence, Rate 125 g/ha, scale of 0 to 10 where 0 is no effect and 10 is complete control
[3] = Postemergence, Rate 250 g/ha, scale of 0 to 10, 0 is no effect, 10 is complete control
[4] = Postemergence, Rate 500 g/ha, scale of 0 to 10 where 0 is no effect and 10 is complete control
[5] = Preemergence, Rate 62 g/ha, scale 0 to 10 (0 no effect, 10 complete control)
[6] = Preemergence, Rate 125 g/ha, scale of 0 to 10 where 0 is no effect and 10 is complete control
[7] = Preemergence, Rate 500 g/ha, scale of 0 to 10 where 0 is no effect and 10 is complete control
[8] = Rate 62 g/ha, flood test species, Pre-emergence, visual evaluation after twelve to sixteen days
[9] = Rate 125 g/ha, under heading Pre-emergence, flood test species, visual evaluation after twelve to sixteen days
[10] = Rate 500 g/ha, Pre-emergence section of Table B, 0 to 10 scale (0 no effect, 10 complete control)

CCc1nc(C)c(C(C)n2c(=O)on(C(=O)N(c3ccc(F)cc3F)C(C)C)c2=O)s1 (stereo not shown) [Compound 589]
B. signalgrass plant response rating (surinam grass; [1]): 0
Plant response rating, B. signalgrass (surinam grass; [2]): 0
B. signalgrass plant response rating (surinam grass; [3]): 0
Plant response rating, B. signalgrass (surinam grass; [4]): 3
B. signalgrass plant response rating (surinam grass; [5]): 0
B. signalgrass plant response rating (surinam grass; [6]): 0
B. signalgrass plant response rating (0 to 10 scale, 0 is no effect, 10 is complete control) (surinam grass; Preemergence, Rate 250 g/ha): 0
B. signalgrass plant response rating (surinam grass; [7]): 0
Blackgrass plant response rating (blackgrass; [1]): 0
Plant response rating, Blackgrass (blackgrass; [2]): 0
Blackgrass plant response rating (blackgrass; [3]): 2
Plant response rating, Blackgrass (blackgrass; [4]): 3
Blackgrass plant response rating (blackgrass; [5]): 0
Blackgrass plant response rating (blackgrass; [6]): 0
Blackgrass plant response rating (0 to 10 scale) (blackgrass; Preemergence, Rate 250 g/ha): 0
Blackgrass plant response rating (blackgrass; [7]): 0
Corn plant response rating (corn; [1]): 0
Plant response rating, Corn (corn; [2]): 0
Corn plant response rating (corn; [3]): 0
Plant response rating, Corn (corn; [4]): 0
Corn plant response rating (corn; [5]): 0
Corn plant response rating (corn; [6]): 0
Corn plant response rating (0 to 10 scale) (corn; Preemergence, Rate 250 g/ha): 0
Corn plant response rating (corn; [7]): 0
Nutsedge plant response rating (purple nutsedge; [1]): 0
Plant response rating, Nutsedge (purple nutsedge; [2]): 0
Nutsedge plant response rating (purple nutsedge; [5]): 0
Nutsedge plant response rating (purple nutsedge; [6]): 0
Nutsedge plant response rating (purple nutsedge; [7]): 9
Giant foxtail plant response rating (giant foxtail; [1]): 0
Plant response rating, Giant foxtail (giant foxtail; [2]): 0
Giant foxtail plant response rating (giant foxtail; [3]): 0
Plant response rating, Giant foxtail (giant foxtail; [4]): 3
Giant foxtail plant response rating (giant foxtail; [5]): 3
Giant foxtail plant response rating (giant foxtail; [6]): 9
Giant foxtail plant response rating (giant foxtail; [7]): 10
Morningglory plant response rating (morningglory; [1]): 3
Plant response rating, Morningglory (morningglory; [2]): 3
Morningglory plant response rating (morningglory; [3]): 5
Plant response rating, Morningglory (morningglory; [4]): 6
Morningglory plant response rating (morningglory; [5]): 0
Morningglory plant response rating (morningglory; [6]): 0
Morningglory plant response rating (morningglory; [7]): 0
Plant response rating, Sugarbeets (sugar beet; [2]): 0
Sugarbeets plant response rating (sugar beet; [3]): 0
Plant response rating, Sugarbeets (sugar beet; [4]): 0
Sugarbeets plant response rating (sugar beet; [5]): 0
Sugarbeets plant response rating (sugar beet; [6]): 0
Sugarbeets plant response rating (sugar beet; [7]): 0
Rape plant response rating (rape; [1]): 0
Plant response rating, Rape (rape; [2]): 0
Rape plant response rating (rape; [3]): 0
Plant response rating, Rape (rape; [4]): 2
Rape plant response rating (rape; [5]): 0
Rape plant response rating (rape; [6]): 0
Rape plant response rating (rape; [7]): 0
Plant response rating, Rice (0 to 10 scale, 0 is no effect, 10 is complete control) (rice; [8]): 0
Rice plant response rating (0 to 10 scale, 0 is no effect, 10 is complete control) (rice; [9]): 0
Rice plant response rating (rice; [10]): 0
Crabgrass plant response rating (crabgrass; [1]): 0
Plant response rating, Crabgrass (crabgrass; [2]): 0
Crabgrass plant response rating (crabgrass; [3]): 1
Plant response rating, Crabgrass (crabgrass; [4]): 3
Crabgrass plant response rating (crabgrass; [5]): 0
Crabgrass plant response rating (crabgrass; [6]): 1
Crabgrass plant response rating (crabgrass; [7]): 9
Plant response rating, Barnyardgrass (0 to 10 scale, 0 is no effect, 10 is complete control) (bamyardgrass; [8]): 0
Barnyardgrass plant response rating (0 to 10 scale, 0 is no effect, 10 is complete control) (bamyardgrass; [9]): 0
Barnyardgrass plant response rating (bamyardgrass; [10]): 0
Plant response rating, Wild oats (wild oat; [2]): 0
Wild oats plant response rating (wild oat; [3]): 0
Wild oats plant response rating (wild oat; [5]): 0
Wild oats plant response rating (wild oat; [6]): 0
Wild oats plant response rating (wild oat; [7]): 0
Plant response rating, S. Flatsedge (0 to 10 scale, 0 is no effect, 10 is complete control) (smallflower flatsedge; [8]): 0
S. Flatsedge plant response rating (0 to 10 scale, 0 is no effect, 10 is complete control) (smallflower flatsedge; [9]): 0
S. Flatsedge plant response rating (smallflower flatsedge; [10]): 0
Plant response rating, Ducksalad (0 to 10 scale, 0 is no effect, 10 is complete control) (duck salad; [8]): 0
Ducksalad plant response rating (0 to 10 scale, 0 is no effect, 10 is complete control) (duck salad; [9]): 0
Ducksalad plant response rating (duck salad; [10]): 0
Plant response rating, Soybean (soybean; [2]): 3
Soybean plant response rating (soybean; [3]): 3
Plant response rating, Soybean (soybean; [4]): 3
Soybean plant response rating (soybean; [5]): 0
Soybean plant response rating (soybean; [6]): 0
Soybean plant response rating (soybean; [7]): 0
Cocklebur plant response rating (cocklebur; [1]): 0
Plant response rating, Cocklebur (cocklebur; [2]): 0
Cocklebur plant response rating (cocklebur; [3]): 0
Plant response rating, Cocklebur (cocklebur; [4]): 0
Cocklebur plant response rating (cocklebur; [5]): 0
Cocklebur plant response rating (cocklebur; [6]): 0
Cocklebur plant response rating (0 to 10 scale) (cocklebur; Preemergence, Rate 250 g/ha): 0
Cocklebur plant response rating (cocklebur; [7]): 0
Plant response rating, Redroot pigweed (pigweed; [2]): 0
Redroot pigweed plant response rating (pigweed; [3]): 2
Plant response rating, Redroot pigweed (pigweed; [4]): 2
Redroot pigweed plant response rating (pigweed; [5]): 0
Redroot pigweed plant response rating (pigweed; [6]): 0
Redroot pigweed plant response rating (pigweed; [7]): 0
Plant response rating, Wheat (wheat; [2]): 0
Wheat plant response rating (wheat; [3]): 0
Plant response rating, Wheat (wheat; [4]): 0
Wheat plant response rating (wheat; [5]): 0
Wheat plant response rating (wheat; [6]): 0
Wheat plant response rating (wheat; [7]): 0
Plant response rating, Velvetleaf (velvetleaf; [2]): 2
Velvetleaf plant response rating (velvetleaf; [3]): 5
Plant response rating, Velvetleaf (velvetleaf; [4]): 5
Velvetleaf plant response rating (velvetleaf; [5]): 0
Velvetleaf plant response rating (velvetleaf; [6]): 0
Velvetleaf plant response rating (velvetleaf; [7]): 0
